# Laboratory results taken from patent US11053204B2, “Pyrimidinyloxy benzene derivatives as herbicides” (FMC Corporation, priority 2015, dated 2021).
# Columns and labels:
# Type in all cases: in vivo
# [1] = system: Italian ryegrass (Lolium multiflorum); test: Test A preemergence, visual injury rating; details: Lolium multiflorum, pre-emergence, 240 h, 0 to 100 scale (0 no effect, 100 complete control), read-out: Ryegrass, Italian plant response rating
# Outline: (§1)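 Greenhouse pot test, loam/sand soil. Formulation: non-phytotoxic solvent mix plus surfactant. Pre: directed spray onto soil after sowing. Post: plants at 1–2 leaf, 2–10 cm. Rated visually vs untreated controls at ~10 d, 0 (no effect) to 100 (complete control).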
# [2] = system: barnyardgrass (Echinochloa crus-galli); test: Test A preemergence, visual injury rating; details: Echinochloa crus-galli, pre-emergence, 240 h, 0 to 100 scale (0 no effect, 100 complete control), read-out: Barnyardgrass plant response rating
# Outline: as §1
# [3] = system: giant foxtail (Setaria faberii); test: Test A preemergence, visual injury rating; details: Setaria faberi, pre-emergence, 240 h, 0 to 100 scale (0 no effect, 100 complete control), read-out: Foxtail, Giant plant response rating
# Outline: as §1
# kochia (Kochia scoparia) = test: Test A preemergence, visual injury rating; details: Bassia scoparia, pre-emergence, 240 h, 0 to 100 scale (0 no effect, 100 complete control), read-out: Kochia plant response rating
# Outline: as §1
# [4] = system: pigweed (Amaranthus retroflexus); test: Test A preemergence, visual injury rating; details: Amaranthus retroflexus, pre-emergence, 240 h, 0 to 100 scale (0 no effect, 100 complete control), read-out: Pigweed plant response rating
# Outline: as §1
# [5] = system: ragweed (common ragweed, Ambrosia elatior); test: Test A preemergence, visual injury rating; details: Ambrosia artemisiifolia, pre-emergence, 240 h, 0 to 100 scale (0 no effect, 100 complete control), read-out: Ragweed plant response rating
# Outline: as §1
# [6] = system: barnyardgrass (Echinochloa crus-galli); test: Test B flooded paddy test, plant response rating; details: Echinochloa crus-galli, 312 h; 250 g ai/ha; Flood; scale of 0 to 100 where 0 is no effect and 100 is complete control; 13 to 15 days
# Outline: (§2)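 Test compounds are applied straight into paddy water held 3 cm above the soil surface, with that flood maintained for the whole test. After 13 to 15 days in the greenhouse, each species is scored visually relative to controls.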
# [7] = system: ducksalad (Heteranthera limosa); test: Test B flooded paddy test, plant response rating; details: Heteranthera limosa, 312 h; 250 g ai/ha; Flood; scale of 0 to 100 where 0 is no effect and 100 is complete control; 13 to 15 days
# Outline: as §2
# rice (Oryza sativa) = test: Test B flooded paddy test, plant response rating; details: Oryza sativa, 312 h; 250 g ai/ha; Flood; scale of 0 to 100 where 0 is no effect and 100 is complete control; 13 to 15 days
# Outline: as §2
# [8] = system: sedge, umbrella (small-flower umbrella sedge, Cyperus difformis); test: Test B flooded paddy test, plant response rating; details: Cyperus difformis, 312 h; 250 g ai/ha; Flood; scale of 0 to 100 where 0 is no effect and 100 is complete control; 13 to 15 days
# Outline: as §2
# [9] = system: blackgrass (Alopecurus myosuroides); test: Test C preemergence, plant response rating; details: Alopecurus myosuroides, pre-emergence, Preemergence
# Outline: (§3)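 Visual injury score, 0 = no effect, 100 = complete control, assigned against untreated controls after 13 to 15 d in the greenhouse. Compounds were applied in a surfactant-containing non-phytotoxic solvent mix, preemergence to seeded loam/sand or silt loam soil, or postemergence to 1- to 4-leaf plants (2 to 18 cm).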
# corn (Zea mays) = test: Test C preemergence, plant response rating; details: Zea mays, pre-emergence, Preemergence
# Outline: as §3
# [10] = system: crabgrass, large (large crabgrass, Digitaria sanguinalis); test: Test C preemergence, plant response rating; details: Digitaria sanguinalis, pre-emergence, Preemergence
# Outline: as §3
# [11] = system: foxtail, giant (giant foxtail, Setaria faberii); test: Test C preemergence, plant response rating; details: Setaria faberi, pre-emergence, Preemergence
# Outline: as §3
# [12] = system: oilseed rape (Brassica napus); test: Test C preemergence, plant response rating; details: Brassica napus, pre-emergence, Preemergence
# Outline: as §3
# [13] = system: ragweed (common ragweed, Ambrosia elatior); test: Test C preemergence, plant response rating; details: Ambrosia artemisiifolia, pre-emergence, Preemergence
# Outline: as §3
# [14] = system: ryegrass, Italian (Italian ryegrass, Lolium multiflorum); test: Test C preemergence, plant response rating; details: Lolium multiflorum, pre-emergence, Preemergence
# Outline: as §3
# soybean (Glycine max) = test: Test C preemergence, plant response rating; details: Glycine max, pre-emergence, Preemergence
# Outline: as §3
smiles,measurement,setting,value
"C=CCCOC(=O)c1c(Br)cccc1Oc1ncc(Cl)cn1 [Compound 21, 3-buten-1-yl 2-bromo-6-[(5-chloro-2-pyrimidinyl)oxy]benzoate]",pest or weed control at 125 g/ha,[1]; 125 g ai/ha,30%
same,pest or weed control at 500 g/ha,[1]; 500 g ai/ha,90%
same,pest or weed control at 125 g/ha,[2]; 125 g ai/ha,100%
same,pest or weed control at 500 g/ha,[2]; 500 g ai/ha,100%
same,pest or weed control at 125 g/ha,[3]; 125 g ai/ha,100%
same,pest or weed control at 500 g/ha,[3]; 500 g ai/ha,100%
same,pest or weed control at 125 g/ha,kochia (Kochia scoparia); 125 g ai/ha,40%
same,pest or weed control at 500 g/ha,kochia (Kochia scoparia); 500 g ai/ha,100%
same,pest or weed control at 125 g/ha,[4]; 125 g ai/ha,100%
same,pest or weed control at 500 g/ha,[4]; 500 g ai/ha,100%
same,pest or weed control at 125 g/ha,[5]; 125 g ai/ha,0%
same,pest or weed control at 500 g/ha,[5]; 500 g ai/ha,0%
same,pest or weed control at 250 g/ha,[6],30%
same,pest or weed control at 250 g/ha,[7],70%
same,plant injury at 250 g/ha,rice (Oryza sativa),0%
same,pest or weed control at 250 g/ha,[8],100%
same,pest or weed control at 62 g/ha,"[9]; 62 g ai/ha, scale of 0 to 100",55%
same,pest or weed control at 125 g/ha,"[9]; 125 g ai/ha, scale of 0 to 100",90%
same,pest or weed control at 16 g/ha,"[9]; 16 g ai/ha, scale 0 to 100",5%
same,pest or weed control at 31 g/ha,"[9]; 31 g ai/ha, scale 0 to 100",35%
same,"Corn plant response rating (crop injury, 0 = no effect, 100 = complete kill) at 62 g/ha","corn (Zea mays); 62 g ai/ha, scale of 0 to 100",5%
same,"Corn plant response rating (crop injury, 0 = no effect, 100 = complete kill) at 125 g/ha","corn (Zea mays); 125 g ai/ha, scale of 0 to 100",20%
same,"Corn plant response rating (crop injury, 0 = no effect, 100 = complete kill) at 16 g/ha","corn (Zea mays); 16 g ai/ha, scale 0 to 100",0%
same,"Corn plant response rating (crop injury, 0 = no effect, 100 = complete kill) at 31 g/ha","corn (Zea mays); 31 g ai/ha, scale 0 to 100",0%
same,pest or weed control at 62 g/ha,"[10]; 62 g ai/ha, scale of 0 to 100",98%
same,pest or weed control at 125 g/ha,"[10]; 125 g ai/ha, scale of 0 to 100",100%
same,pest or weed control at 16 g/ha,"[10]; 16 g ai/ha, scale 0 to 100",20%
same,pest or weed control at 31 g/ha,"[10]; 31 g ai/ha, scale 0 to 100",75%
same,pest or weed control at 62 g/ha,"[11]; 62 g ai/ha, scale of 0 to 100",95%
same,pest or weed control at 125 g/ha,"[11]; 125 g ai/ha, scale of 0 to 100",90%
same,pest or weed control at 16 g/ha,"[11]; 16 g ai/ha, scale 0 to 100",20%
same,pest or weed control at 31 g/ha,"[11]; 31 g ai/ha, scale 0 to 100",80%
same,plant injury at 125 g/ha,"[12]; 125 g ai/ha, scale of 0 to 100",100%
same,plant injury at 16 g/ha,"[12]; 16 g ai/ha, scale 0 to 100",0%
same,plant injury at 31 g/ha,"[12]; 31 g ai/ha, scale 0 to 100",0%
same,plant injury at 62 g/ha,"[12]; 62 g ai/ha, scale 0 to 100",75%
same,pest or weed control at 125 g/ha,"[13]; 125 g ai/ha, scale of 0 to 100",0%
same,pest or weed control at 16 g/ha,"[13]; 16 g ai/ha, scale 0 to 100",0%
same,pest or weed control at 31 g/ha,"[13]; 31 g ai/ha, scale 0 to 100",0%
same,pest or weed control at 62 g/ha,"[13]; 62 g ai/ha, scale 0 to 100",0%
same,pest or weed control at 125 g/ha,"[14]; 125 g ai/ha, scale of 0 to 100",90%
same,pest or weed control at 16 g/ha,"[14]; 16 g ai/ha, scale 0 to 100",0%
same,pest or weed control at 31 g/ha,"[14]; 31 g ai/ha, scale 0 to 100",10%
same,pest or weed control at 62 g/ha,"[14]; 62 g ai/ha, scale 0 to 100",15%
same,plant injury at 125 g/ha,"soybean (Glycine max); 125 g ai/ha, scale of 0 to 100",0%
same,plant injury at 16 g/ha,"soybean (Glycine max); 16 g ai/ha, scale 0 to 100",0%
same,plant injury at 31 g/ha,"soybean (Glycine max); 31 g ai/ha, scale 0 to 100",0%
same,plant injury at 62 g/ha,"soybean (Glycine max); 62 g ai/ha, scale 0 to 100",0%
